The text below walks through data of patent US6875778B2, “Alkylene-tethered bis-nitroiminoimidazolidines, process for preparing the same, and insecticides containing the same” (Gifu University, priority 2002, dated 2005).

The subject of this assay is common cockroach. Description: insecticidal activity against the common cockroach (abdominal injection, minimum lethal dose). It is filed as in vivo. The conditions noted are these: MLD = minimum lethal dose (moles/insect) at which two of three male adult common cockroaches became paralyzed or died; 1 to 10 μl of 1% by weight methanol solution injected into abdomen. On the procedure: The insecticidal activity against the common cockroach was tested for the compounds of Examples 1 to 14 and the compound of Comparative Example 1. Methanol solutions containing 1% by weight of each compound were prepared. 1 to 10 μl of the methanol solution were injected into the abdomens of 3 male adult common cockroaches. The concentration at which two of the three adult insects became paralyzed or died, namely the minimum lethal dose (MLD: moles/insect) was then investigated.

In the case of `O=[N+]([O-])N=C1N(CCN2CCN(Cc3ccc(Cl)nc3)C2=N[N+](=O)[O-])CCN1Cc1ccc(Cl)nc1` [Comp. Exp. 1, 1,2-bis[(6-chloronicotinyl)-2-nitroiminoimidazolidin-3-yl]ethane, reference compound], the “log (1/MLD)” value is 7.38. To `O=[N+]([O-])N=C1N(CCCN2CCN(Cc3ccc(Cl)nc3)C2=N[N+](=O)[O-])CCN1Cc1ccc(Cl)nc1` [Exp. 1, 1,3-bis[(6-chloronicotinyl)-2-nitroiminoimidazolidin-3-yl]propane] belongs 8.31; to `O=[N+]([O-])N=C1N(CCCCN2CCN(Cc3ccc(Cl)nc3)C2=N[N+](=O)[O-])CCN1Cc1ccc(Cl)nc1` [Exp. 2, 1,4-bis[(6-chloronicotinyl)-2-nitroiminoimidazolidin-3-yl]butane], 7.97; to `O=[N+]([O-])N=C1N(CCCCCCN2CCN(Cc3ccc(Cl)nc3)C2=N[N+](=O)[O-])CCN1Cc1ccc(Cl)nc1` [Exp. 4, 1,6-bis[(6-chloronicotinyl)-2-nitroiminoimidazolidin-3-yl]hexane], 8.65. Next, `O=[N+]([O-])N=C1N(CCCCCCCN2CCN(Cc3ccc(Cl)nc3)C2=N[N+](=O)[O-])CCN1Cc1ccc(Cl)nc1` [Exp. 5, 1,7-bis[(6-chloronicotinyl)-2-nitroiminoimidazolidin-3-yl]heptane]: 8.55; `O=[N+]([O-])N=C1N(CCCCCCCCN2CCN(Cc3ccc(Cl)nc3)C2=N[N+](=O)[O-])CCN1Cc1ccc(Cl)nc1` [Exp. 6, 1,8-bis[(6-chloronicotinyl)-2-nitroiminoimidazolidin-3-yl]octane]: 8.35.

Turning to `O=[N+]([O-])N=C1N(CCCCCCCCCN2CCN(Cc3ccc(Cl)nc3)C2=N[N+](=O)[O-])CCN1Cc1ccc(Cl)nc1` [Exp. 7, 1,9-bis[(6-chloronicotinyl)-2-nitroiminoimidazolidin-3-yl]nonane], the “log (1/MLD)” value came to 8.56. To `O=[N+]([O-])N=C1N(CCCCCCCCCCN2CCN(Cc3ccc(Cl)nc3)C2=N[N+](=O)[O-])CCN1Cc1ccc(Cl)nc1` [Exp. 8, 1,10-bis[(6-chloronicotinyl)-2-nitroiminoimidazolidin-3-yl]decane] belongs 8.43; to `O=[N+]([O-])N=C1N(Cc2ccc(Cl)nc2)CCN1Cc1cccc(CN2CCN(Cc3ccc(Cl)nc3)C2=N[N+](=O)[O-])c1` [Exp. 12, 1,3-bis[(6-chloronicotinyl)-2-nitroiminoimidazolidin-3-yl]methylbenzene], 7.71; to `O=[N+]([O-])N=C1N(Cc2ccc(CN3CCN(Cc4ccc(Cl)nc4)C3=N[N+](=O)[O-])cc2)CCN1Cc1ccc(Cl)nc1` [Exp. 13, 1,4-bis[(6-chloronicotinyl)-2-nitroiminoimidazolidin-3-yl]methylbenzene], 7.57. To `O=[N+]([O-])N=C1N(CCCCCCN2CCN(Cc3cnc(Cl)s3)C2=N[N+](=O)[O-])CCN1Cc1cnc(Cl)s1` [Exp. 14, 1,6-bis[1-(2-chloro-5-thiazolylmethyl)-2-nitroiminoimidazolidin-3-yl]hexane] belongs 7.56.
